What was measured:
[1] = test system: conscious beagle dogs; assay: 10 minute intravenous infusion, increasing doses: mean blood pressure, heart rate, plasma histamine (ELISA); type: in vivo, dog; settings: pretreatment before i.v. sulcardine sulfate
[2] = test system: anesthetized dogs; assay: Hemodynamic effects of 15 minute infusions (10, 30, 90 mg/kg) with or without diphenhydramine pretreatment; type: in vivo, dog; settings: given prior to IV sulcardine sulfate
Description: Dogs were administered morphine (2 mg/kg subcutaneously) approximately 10-19 minutes prior to administration of anesthesia. Dogs were anesthetized with 1% α-chloralose (100 mg/kg intravenous), followed by a constant infusion of α-chloralose (35-75 mg/kg/hr, IV). Two healthy female dogs were administered escalating doses of sulcardine sulfate intravenously over 15 minutes in an acetate buffer system at dose levels of 10, 30 and 90 mg/kg with dose administrations separated by 60 minutes. Another set of two dogs received test article after pre-treatment with diphenhydramine (1 mg/kg administered 30 minutes prior to start of test article infusion). Following drug administration, dogs were evaluated for ventricular, pulmonary and peripheral hemodynamic changes using Swanz Ganz and femoral catheters as well as by monitoring of blood oxygen saturation, test article blood level, body temperature, blood biochemistry, hematology, ECG, and histamine levels.

[3] = test system: post-MI canine; assay: Defibrillation threshold / failure risk in post-MI canine model; type: in vivo

| Structure (SMILES) | Effect of pretreatment on histamine-mediated events of sulcardine sulfate [1] | Effect of anti-histamine on cutaneous manifestations of histamine release (flushing and facial and ear edema) [2] | Effect of anti-histamine on hypotension seen on dosing [2] | Defibrillation failure risk [3] |
| --- | --- | --- | --- | --- |
| CN(C)CCOC(c1ccccc1)c1ccccc1 [diphenhydramine, reference compound] | prevented the histamine-mediated events | blunting some of the cutaneous manifestations of histamine release | only partially reversed the hypotension |  |
| O=C(NCC1CCCCN1)c1cc(OCC(F)(F)F)ccc1OCC(F)(F)F (centres unmarked) [flecanide] |  |  |  | increase defibrillation failure risk |
| N#Cc1cc(NC(=O)C(=O)O)c(Cl)c(NC(=O)C(=O)O)c1 [lodoxamide] | prevented the histamine-mediated events |  |  |  |
